PubChem BioAssay (NCI)
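Tested at 5 concentrations; 48 h exposure; 96-well plates; endpoints linearly interpolated, else capped at highest concentration. GI50 is the concentration that inhibits growth by half. TGI marks complete inhibition of growth.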

Legend:
Assay in all cases: NCI-60 cell line screen, 48 h
[1] = tested on: MALME-3M melanoma
[2] = tested on: LOX IMVI melanoma
[3] = tested on: PC-3 prostate
[4] = tested on: BT-549 breast
[5] = tested on: SF-539 CNS
[6] = tested on: 786-0 renal
[7] = tested on: RXF 393 renal
[8] = tested on: NCI-H23 lung
[9] = tested on: SK-OV-3 ovarian
[10] = tested on: DU-145 prostate
[11] = tested on: IGROV1 ovarian
[12] = tested on: NCI-H226 lung
[13] = tested on: A498 renal
[14] = tested on: SK-MEL-28 melanoma
[15] = tested on: HL-60(TB) leukemia
[16] = tested on: OVCAR-4 ovarian
[17] = tested on: HT29 colon
[18] = tested on: OVCAR-8 ovarian
[19] = tested on: KM12 colon
[20] = tested on: HOP-62 NSCLC
[21] = tested on: A549 NSCLC
[22] = tested on: UACC-257 melanoma
[23] = tested on: T-47D breast
[24] = tested on: SK-MEL-2 melanoma
[25] = tested on: SN12C renal
[26] = tested on: UO-31 renal
[27] = tested on: SW-620 colon
[28] = tested on: NCI/ADR-RES ovarian
[29] = tested on: HCC-2998 colon
[30] = tested on: K-562 leukemia
[31] = tested on: COLO 205 colon
[32] = tested on: NCI-H522 lung
[33] = tested on: EKVX NSCLC
[34] = tested on: ACHN renal
[35] = tested on: OVCAR-5 ovarian
[36] = tested on: SF-295 CNS
[37] = tested on: MDA-MB-435
[38] = tested on: HCT-116 colon
[39] = tested on: CCRF-CEM leukemia
[40] = tested on: HOP-92 NSCLC
[41] = tested on: OVCAR-3 ovarian
[42] = tested on: UACC-62 melanoma
[43] = tested on: CAKI-1 renal
[44] = tested on: SR leukemia
[45] = tested on: U251 CNS
[46] = tested on: RPMI-8226 leukemia
[47] = tested on: M14 melanoma
[48] = tested on: MDA-MB-231 breast
[49] = tested on: TK-10 renal
[50] = tested on: SNB-75 CNS
[51] = tested on: HCT-15 colon
[52] = tested on: HS 578T breast
[53] = tested on: SF-268 CNS
[54] = tested on: NCI-H460 lung
[55] = tested on: MCF7 breast
[56] = tested on: SK-MEL-5 melanoma
[57] = tested on: MOLT-4 leukemia
[58] = tested on: SNB-19 CNS

COc1cccc2c(Nc3ccc(C(=O)O)cc3)cc(-c3ccccc3)nc12
GI50 [1]: > 100 µM
TGI [1]: > 100 µM
GI50 [2]: > 100 µM
TGI [2]: > 100 µM
GI50 [3]: > 100 µM
TGI [3]: > 100 µM
GI50 [4]: > 100 µM
TGI [4]: > 100 µM
GI50 [5]: > 100 µM
TGI [5]: > 100 µM
GI50 [6]: > 100 µM
TGI [6]: > 100 µM
GI50 [7]: > 100 µM
TGI [7]: > 100 µM
GI50 [8]: > 100 µM
TGI [8]: > 100 µM
GI50 [9]: > 100 µM
TGI [9]: > 100 µM
GI50 [10]: > 100 µM
TGI [10]: > 100 µM
GI50 [11]: > 100 µM
TGI [11]: > 100 µM
GI50 [12]: > 100 µM
TGI [12]: > 100 µM
GI50 [13]: > 100 µM
TGI [13]: > 100 µM
GI50 [14]: > 100 µM
TGI [14]: > 100 µM
GI50 [15]: > 100 µM
TGI [15]: > 100 µM
GI50 [16]: > 100 µM
TGI [16]: > 100 µM
GI50 [17]: > 100 µM
TGI [17]: > 100 µM
GI50 [18]: > 100 µM
TGI [18]: > 100 µM
GI50 [19]: > 100 µM
TGI [19]: > 100 µM
GI50 [20]: > 100 µM
TGI [20]: > 100 µM
GI50 [21]: > 100 µM
TGI [21]: > 100 µM
GI50 [22]: > 100 µM
TGI [22]: > 100 µM
GI50 [23]: 84.5 µM
TGI [23]: > 100 µM
GI50 [24]: > 100 µM
TGI [24]: > 100 µM
GI50 [25]: > 100 µM
TGI [25]: > 100 µM
GI50 [26]: > 100 µM
TGI [26]: > 100 µM
GI50 [27]: > 100 µM
TGI [27]: > 100 µM
GI50 [28]: > 100 µM
TGI [28]: > 100 µM
GI50 [29]: > 100 µM
TGI [29]: > 100 µM
GI50 [30]: > 100 µM
TGI [30]: > 100 µM
GI50 [31]: > 100 µM
TGI [31]: > 100 µM
GI50 [32]: > 100 µM
TGI [32]: > 100 µM
GI50 [33]: > 100 µM
TGI [33]: > 100 µM
GI50 [34]: > 100 µM
TGI [34]: > 100 µM
GI50 [35]: > 100 µM
TGI [35]: > 100 µM
GI50 [36]: > 100 µM
TGI [36]: > 100 µM
GI50 [37]: > 100 µM
TGI [37]: > 100 µM
GI50 [38]: > 100 µM
TGI [38]: > 100 µM
GI50 [39]: > 100 µM
TGI [39]: > 100 µM
GI50 [40]: 39.4 µM
TGI [40]: > 100 µM
GI50 [41]: > 100 µM
TGI [41]: > 100 µM
GI50 [42]: > 100 µM
TGI [42]: > 100 µM
GI50 [43]: > 100 µM
TGI [43]: > 100 µM
GI50 [44]: > 100 µM
TGI [44]: > 100 µM
GI50 [45]: > 100 µM
TGI [45]: > 100 µM
GI50 [46]: > 100 µM
TGI [46]: > 100 µM
GI50 [47]: > 100 µM
TGI [47]: > 100 µM
GI50 [48]: > 100 µM
TGI [48]: > 100 µM
GI50 [49]: > 100 µM
TGI [49]: > 100 µM
GI50 [50]: 72.3 µM
TGI [50]: > 100 µM
GI50 [51]: > 100 µM
TGI [51]: > 100 µM
GI50 [52]: > 100 µM
TGI [52]: > 100 µM

COc1ccc(/C(COc2ccc3c(c2)oc(=O)c2cc(OC)ccc23)=N/O)cc1
GI50 [1]: 65.7 µM
TGI [1]: > 100 µM
GI50 [2]: 8.12 µM
TGI [2]: 67.2 µM
GI50 [3]: 7.28 µM
TGI [3]: > 100 µM
GI50 [4]: 15 µM
TGI [4]: > 100 µM
GI50 [5]: 8.33 µM
TGI [5]: 51.3 µM
GI50 [6]: 14.8 µM
TGI [6]: > 100 µM
GI50 [7]: 26.8 µM
TGI [7]: > 100 µM
GI50 [8]: 20.5 µM
TGI [8]: > 100 µM
GI50 [9]: 37.4 µM
TGI [9]: > 100 µM
GI50 [10]: 29.2 µM
TGI [10]: > 100 µM
GI50 [11]: 4.87 µM
TGI [11]: > 100 µM
GI50 [12]: 41.7 µM
TGI [12]: > 100 µM
GI50 [13]: 3.22 µM
TGI [13]: 52.2 µM
GI50 [14]: 4.86 µM
TGI [14]: > 100 µM
GI50 [53]: 8.33 µM
TGI [53]: > 100 µM
GI50 [16]: 24.7 µM
TGI [16]: > 100 µM
GI50 [17]: 3.72 µM
TGI [17]: 74.8 µM
GI50 [18]: 11.4 µM
TGI [18]: > 100 µM
GI50 [19]: 4.67 µM
TGI [19]: > 100 µM
GI50 [20]: 8.86 µM
TGI [20]: > 100 µM
GI50 [54]: 3.97 µM
TGI [54]: > 100 µM
GI50 [21]: 7.41 µM
TGI [21]: > 100 µM
GI50 [22]: 24.8 µM
TGI [22]: > 100 µM
GI50 [55]: 4.16 µM
TGI [55]: > 100 µM
GI50 [23]: 6.9 µM
TGI [23]: > 100 µM
GI50 [24]: 15.2 µM
TGI [24]: > 100 µM
GI50 [25]: 13.6 µM
TGI [25]: > 100 µM
GI50 [26]: 17.1 µM
TGI [26]: > 100 µM
GI50 [27]: 4.34 µM
TGI [27]: > 100 µM
GI50 [56]: 4.27 µM
TGI [56]: 69.4 µM
GI50 [28]: 2.96 µM
TGI [28]: 9.76 µM
GI50 [29]: 7.64 µM
TGI [29]: > 100 µM
GI50 [30]: 5.36 µM
TGI [30]: > 100 µM
GI50 [31]: 3.75 µM
TGI [31]: > 100 µM
GI50 [32]: 3.55 µM
TGI [32]: 19.1 µM
GI50 [33]: 23.7 µM
TGI [33]: > 100 µM
GI50 [35]: > 100 µM
TGI [35]: > 100 µM
GI50 [36]: 6.2 µM
TGI [36]: > 100 µM
GI50 [57]: 5.86 µM
TGI [57]: > 100 µM
GI50 [38]: 4.18 µM
TGI [38]: > 100 µM
GI50 [39]: 8.05 µM
TGI [39]: > 100 µM
GI50 [40]: 80.9 µM
TGI [40]: > 100 µM
GI50 [41]: 3.68 µM
TGI [41]: > 100 µM
GI50 [42]: 3.94 µM
TGI [42]: > 100 µM
GI50 [43]: 6.4 µM
TGI [43]: > 100 µM
GI50 [58]: 4.34 µM
TGI [58]: > 100 µM
GI50 [45]: 5.08 µM
TGI [45]: > 100 µM
GI50 [46]: 5.44 µM
TGI [46]: > 100 µM
GI50 [47]: 4.29 µM
TGI [47]: > 100 µM
GI50 [48]: 10.8 µM
TGI [48]: > 100 µM
GI50 [49]: 8.14 µM
TGI [49]: > 100 µM
GI50 [50]: 2.73 µM
TGI [50]: 9.98 µM
GI50 [51]: 5.16 µM
TGI [51]: > 100 µM
GI50 [52]: 10.6 µM
TGI [52]: > 100 µM
